Assay results as given in patent US12435072B2, “Compounds” (Vicore Pharma AB, priority 2019, dated 2025).
pIC50: −log10 of the molar value.

Legend:
[1] = target: T1, human recombinant AT2 receptor (Homo sapiens, UniProt P50052); assay: Binding to AT2 receptor, radiometric scintillation assay (Eurofins); conditions: ligand 125I CGP 42112A, tested at 1, 10, 100 and 1000 nM
T1 construct: purchased Eurofins ITEM26
T1 sequence (P50052 1-363): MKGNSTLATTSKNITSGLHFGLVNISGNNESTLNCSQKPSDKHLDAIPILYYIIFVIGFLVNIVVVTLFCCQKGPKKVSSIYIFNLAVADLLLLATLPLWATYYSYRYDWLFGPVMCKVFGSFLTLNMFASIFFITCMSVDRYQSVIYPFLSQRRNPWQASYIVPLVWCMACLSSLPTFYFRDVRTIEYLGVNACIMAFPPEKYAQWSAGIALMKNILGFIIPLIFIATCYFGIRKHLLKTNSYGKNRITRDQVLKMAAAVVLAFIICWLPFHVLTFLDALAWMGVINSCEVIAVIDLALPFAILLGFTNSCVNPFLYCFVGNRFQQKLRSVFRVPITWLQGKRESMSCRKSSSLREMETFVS
Experimental: (§1) Compounds were evaluated for binding to the human recombinant AT2 and AT1 receptor according to Eurofins protocol ITEM26 and ITEM24 using a radiometric scintillation assay.

[2] = target: T2, human recombinant AT1 receptor (Homo sapiens, UniProt P30556); assay: Binding to AT1 receptor, radiometric scintillation assay (Eurofins); conditions: ligand 125I(sar1,Ile8)-AT-II, tested at 1 and 10 μM
T2 construct: purchased Eurofins ITEM24
T2 sequence (P30556 1-359): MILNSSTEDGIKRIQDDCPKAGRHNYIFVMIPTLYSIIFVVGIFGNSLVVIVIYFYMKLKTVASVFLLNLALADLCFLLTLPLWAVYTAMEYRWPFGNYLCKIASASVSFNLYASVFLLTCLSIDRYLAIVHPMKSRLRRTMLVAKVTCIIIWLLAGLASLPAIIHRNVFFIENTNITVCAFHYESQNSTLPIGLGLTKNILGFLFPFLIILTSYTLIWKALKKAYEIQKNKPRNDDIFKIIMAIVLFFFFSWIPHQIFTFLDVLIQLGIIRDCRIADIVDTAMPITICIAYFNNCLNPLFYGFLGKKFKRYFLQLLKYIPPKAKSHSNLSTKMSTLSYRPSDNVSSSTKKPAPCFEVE
Experimental: as §1

CYP1A = target: T3, CYP1A (Homo sapiens, UniProt P05177); assay: CYP inhibition in human liver microsomes, CYP1A; format: in vitro ADME; conditions: probe phenacetin, substrate phenacetin, read-out: CYP1A Inh %
T3 construct: incubated with human liver microsomes; tissue Eurofins ITEMG232; host or cells: human liver microsomes
T3 sequence (P05177 1-516): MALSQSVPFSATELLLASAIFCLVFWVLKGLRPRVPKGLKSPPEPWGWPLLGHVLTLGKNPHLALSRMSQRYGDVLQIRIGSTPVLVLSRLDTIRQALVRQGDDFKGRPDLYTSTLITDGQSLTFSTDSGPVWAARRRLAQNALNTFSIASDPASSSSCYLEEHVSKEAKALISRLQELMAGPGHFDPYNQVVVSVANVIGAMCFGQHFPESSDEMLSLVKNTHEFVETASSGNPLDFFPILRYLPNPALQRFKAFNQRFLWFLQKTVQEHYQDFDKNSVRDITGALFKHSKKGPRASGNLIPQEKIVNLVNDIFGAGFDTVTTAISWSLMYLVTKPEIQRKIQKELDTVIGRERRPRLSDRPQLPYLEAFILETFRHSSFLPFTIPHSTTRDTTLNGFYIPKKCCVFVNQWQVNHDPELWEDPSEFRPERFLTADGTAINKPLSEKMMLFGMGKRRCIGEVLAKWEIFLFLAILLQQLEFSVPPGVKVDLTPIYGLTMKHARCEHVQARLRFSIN
Experimental: (§2) The following substrates were used: CYP1A phenacetin, CYP2B6 bupropion, CYP2C8 paclitaxel and amodiaquine, CYP2C9 diclofenac, CYP2C19 omeprazole, CYP2D6 dextromethorphan, CYP3A midazolam and testosterone. At the end of the incubation, the formation of metabolite was monitored by HPLC-MS/MS as the peak area response.

CYP2C19 = target: T4, CYP2C19 (Homo sapiens, UniProt P33261); assay: CYP inhibition in human liver microsomes, CYP2C19; format: in vitro ADME; conditions: probe omeprazole, substrate omeprazole, read-out: CYP2C19 Inh %
T4 construct: incubated with human liver microsomes; tissue Eurofins ITEMG232; host or cells: human liver microsomes
T4 sequence (P33261 whole entry): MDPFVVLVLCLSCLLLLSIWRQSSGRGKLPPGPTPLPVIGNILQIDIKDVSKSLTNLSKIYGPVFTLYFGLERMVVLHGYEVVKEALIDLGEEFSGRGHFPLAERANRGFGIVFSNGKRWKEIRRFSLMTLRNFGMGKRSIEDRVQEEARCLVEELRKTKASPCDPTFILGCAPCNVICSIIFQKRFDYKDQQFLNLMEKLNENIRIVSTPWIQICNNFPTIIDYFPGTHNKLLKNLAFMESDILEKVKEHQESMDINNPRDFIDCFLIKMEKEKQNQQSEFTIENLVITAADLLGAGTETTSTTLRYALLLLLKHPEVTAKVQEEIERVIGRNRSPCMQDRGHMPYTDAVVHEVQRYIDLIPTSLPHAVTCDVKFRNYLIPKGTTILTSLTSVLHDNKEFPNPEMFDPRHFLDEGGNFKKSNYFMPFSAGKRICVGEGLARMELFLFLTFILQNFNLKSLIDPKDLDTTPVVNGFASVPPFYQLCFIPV
Experimental: as §2

CYP2C8 = target: T5, CYP2C8 (Homo sapiens, UniProt P10632); assay: CYP inhibition in human liver microsomes, CYP2C8; format: in vitro ADME; conditions: probe paclitaxel and amodiaquine, substrate paclitaxel and amodiaquine, read-out: CYP2C8 Inh %
T5 construct: incubated with human liver microsomes; tissue Eurofins ITEMG232; host or cells: human liver microsomes
T5 sequence (P10632 1-490): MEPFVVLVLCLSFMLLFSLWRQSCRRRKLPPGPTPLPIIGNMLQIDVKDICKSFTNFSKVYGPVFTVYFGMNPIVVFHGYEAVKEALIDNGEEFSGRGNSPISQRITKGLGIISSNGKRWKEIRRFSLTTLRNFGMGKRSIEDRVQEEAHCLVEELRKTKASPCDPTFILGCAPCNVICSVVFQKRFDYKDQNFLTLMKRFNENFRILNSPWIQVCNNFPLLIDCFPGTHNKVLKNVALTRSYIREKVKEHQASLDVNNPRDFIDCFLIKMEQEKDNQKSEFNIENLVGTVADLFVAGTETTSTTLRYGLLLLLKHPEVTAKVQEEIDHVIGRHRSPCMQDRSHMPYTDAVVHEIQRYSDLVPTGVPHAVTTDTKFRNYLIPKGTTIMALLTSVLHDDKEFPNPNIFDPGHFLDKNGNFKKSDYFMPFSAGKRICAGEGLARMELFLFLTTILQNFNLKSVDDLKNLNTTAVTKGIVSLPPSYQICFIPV
How it was run: (§3)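 Substrate is added to human liver microsomes (CYP2C8: paclitaxel, amodiaquine; CYP2C9: diclofenac; CYP2D6: dextromethorphan). The mixture is incubated. Product is then monitored by HPLC-MS/MS peak area.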

CYP2D6 = target: T6, CYP2D6 (Homo sapiens, UniProt P10635); assay: CYP inhibition in human liver microsomes, CYP2D6; format: in vitro ADME; conditions: probe dextromethorphan, substrate dextromethorphan, read-out: CYP2D6 Inh %
T6 construct: incubated with human liver microsomes; tissue Eurofins ITEMG232; host or cells: human liver microsomes
T6 sequence (P10635 whole entry): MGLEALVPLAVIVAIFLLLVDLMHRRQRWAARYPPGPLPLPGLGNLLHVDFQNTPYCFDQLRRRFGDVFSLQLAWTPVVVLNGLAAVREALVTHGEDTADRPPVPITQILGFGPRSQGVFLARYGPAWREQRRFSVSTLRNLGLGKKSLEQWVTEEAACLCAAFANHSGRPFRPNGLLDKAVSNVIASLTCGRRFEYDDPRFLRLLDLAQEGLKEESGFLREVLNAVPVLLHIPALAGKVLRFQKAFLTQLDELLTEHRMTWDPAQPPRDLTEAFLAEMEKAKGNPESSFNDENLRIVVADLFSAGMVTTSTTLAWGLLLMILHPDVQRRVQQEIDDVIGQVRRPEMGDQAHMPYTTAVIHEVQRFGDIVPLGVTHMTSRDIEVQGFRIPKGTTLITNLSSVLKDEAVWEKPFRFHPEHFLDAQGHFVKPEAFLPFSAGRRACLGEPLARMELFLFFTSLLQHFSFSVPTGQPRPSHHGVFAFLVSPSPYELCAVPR
How it was run: as §3

CYP2C9 = CYP2C9 (Homo sapiens, UniProt P11712); assay: CYP inhibition in human liver microsomes, CYP2C9; format: in vitro ADME; parameters: incubated with human liver microsomes; tissue Eurofins ITEMG232; host or cells: human liver microsomes; conditions: probe diclofenac, substrate diclofenac, read-out: CYP2C9 Inh %
Sequence of CYP2C9 (P11712 whole entry): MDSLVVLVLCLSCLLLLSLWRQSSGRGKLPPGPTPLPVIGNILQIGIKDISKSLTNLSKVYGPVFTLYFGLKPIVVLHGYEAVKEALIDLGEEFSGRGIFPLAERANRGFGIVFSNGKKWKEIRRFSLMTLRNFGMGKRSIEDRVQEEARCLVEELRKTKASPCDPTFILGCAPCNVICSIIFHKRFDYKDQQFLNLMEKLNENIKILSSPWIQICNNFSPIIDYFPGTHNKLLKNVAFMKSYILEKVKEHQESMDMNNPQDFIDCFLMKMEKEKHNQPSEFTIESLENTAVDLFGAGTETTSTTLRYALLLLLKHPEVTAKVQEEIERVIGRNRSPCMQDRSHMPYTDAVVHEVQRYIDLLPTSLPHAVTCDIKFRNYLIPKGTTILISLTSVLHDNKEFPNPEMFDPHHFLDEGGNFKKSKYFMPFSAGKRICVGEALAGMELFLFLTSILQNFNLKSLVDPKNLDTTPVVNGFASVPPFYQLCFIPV
How it was run: as §3

CYP3A4 = CYP3A4 (Homo sapiens, UniProt P08684); assay: CYP inhibition in human liver microsomes, CYP3A4 (midazolam); format: in vitro ADME; parameters: incubated with human liver microsomes; tissue Eurofins ITEMG232; host or cells: human liver microsomes; conditions: probe midazolam, substrate midazolam, read-out: CYP3A4 midazolam Inh %
Sequence of CYP3A4 (P08684 whole entry): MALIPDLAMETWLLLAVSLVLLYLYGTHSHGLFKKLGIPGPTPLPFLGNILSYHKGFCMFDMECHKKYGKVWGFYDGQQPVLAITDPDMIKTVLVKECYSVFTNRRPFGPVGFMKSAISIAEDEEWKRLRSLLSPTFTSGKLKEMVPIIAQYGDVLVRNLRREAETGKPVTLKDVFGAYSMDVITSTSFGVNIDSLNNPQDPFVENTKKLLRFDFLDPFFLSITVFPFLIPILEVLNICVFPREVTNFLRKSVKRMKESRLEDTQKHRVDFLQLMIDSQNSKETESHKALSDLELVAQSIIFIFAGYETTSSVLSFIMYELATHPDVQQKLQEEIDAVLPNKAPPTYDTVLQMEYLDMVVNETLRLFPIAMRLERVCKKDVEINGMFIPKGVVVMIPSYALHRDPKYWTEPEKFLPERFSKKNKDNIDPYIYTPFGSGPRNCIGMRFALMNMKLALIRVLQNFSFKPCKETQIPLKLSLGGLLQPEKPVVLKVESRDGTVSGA
Experimental: as §2

| SMILES | pIC50 [1] | pIC50 [2] | inhibition at 10 µM (CYP1A) [%] | inhibition at 10 µM (CYP2C19) [%] | inhibition at 10 µM (CYP2C8) [%] | inhibition at 10 µM (CYP2D6) [%] | inhibition at 10 µM (CYP2C9) [%] | inhibition at 10 µM (CYP3A4) [%] |
| --- | --- | --- | --- | --- | --- | --- | --- | --- |
| Cc1nccn1Cc1ccc(-c2cc(CC(C)C)sc2S(=O)(=O)NC(=O)NCC(C)C)cc1F.O=C(O)C(F)(F)F [Example 39, 1-[(3-{3-fluoro-4-[(2-methyl-1H-imidazol-1-yl)methyl]phenyl}-5-(2-methylpropyl)thiophen-2-yl)sulfonyl]-3-(2-methylpropyl)urea trifluoroacetic acid] | 8.07 | 4.80 | -2 | 56 | 51 | 10 | 44 | 18 |
| CCc1nccn1Cc1ccc(-c2cc(CC(C)C)sc2S(=O)(=O)NC(=O)NCCOC)cc1 [Example 7, 3-(3-{p-[(2-Ethyl-1H-imidazol-1-yl)methyl]phenyl}-5-isobutyl-2-thienylsulfonyl)-1-(2-methoxy-ethyl)urea] | 7.82 | < 5.00 | 10.6 | 37.9 | 38.6 | 3.2 | 10.2 | 10.1 |
| CCc1nccn1Cc1ccc(-c2cc(CC(C)C)sc2S(=O)(=O)NC(=O)NCc2ccc(F)cc2)cc1F.O=C(O)C(F)(F)F [Example 32, 3-[(3-{4-[(2-ethyl-1H-imidazol-1-yl)methyl]-3-fluorophenyl}-5-(2-methylpropyl)thiophen-2-yl)sulfonyl]-1-[(4-fluorophenyl)methyl] urea trifluoroacetic acid] | 8.80 | 5.30 | -26 | 67 | 65 | 39 | 49 | 35 |
| Cc1nccn1Cc1ccc(-c2cc(CC(C)C)sc2S(=O)(=O)NC(=O)NCc2ccccn2)cc1F [Example 13, 3-(3-{3-Fluoro-4-[(2-methyl-1H-imidazol-1-yl)methyl]phenyl}-5-isobutyl-2-thienylsulfonyl)-1-[(2-pyridyl)methyl]urea] | 9.28 | 4.59 | 16 | 40 | 77 | 12 | 32 | 80 |
| CC(C)Cc1cc(-c2ccc(Cn3ccnc3C(C)C)c(F)c2)c(S(=O)(=O)NC(=O)NCCC(F)(F)F)s1.O=C(O)C(F)(F)F [Example 41, 1-{[3-(3-fluoro-4-{[2-(propan-2-yl)-1H-imidazol-1-yl]methyl}phenyl)-5-(2-methylpropyl)thiophen-2-yl]sulfonyl}-3-(3,3,3-trifluoropropyl)urea trifluoroacetic acid] | 8.31 | 5.40 | 5 | 53 | 76 | 12 | 58 | -5 |
| Cc1nccn1Cc1ccc(-c2cc(CC(C)C)sc2S(=O)(=O)NC(=O)NCc2cccs2)cc1F.O=C(O)C(F)(F)F [Example 35, 1-[(3-{3-fluoro-4-[(2-methyl-1H-imidazol-1-yl)methyl]phenyl}-5-(2-methylpropyl)thiophen-2-yl)sulfonyl]-3-[(thiophen-2-yl)methyl]urea trifluoroacetic acid] | 9.20 | 5.10 | 20 | 60 | 56 | 45 | 71 | 26 |
| Cc1nccn1Cc1ccc(-c2cc(CC(C)C)sc2S(=O)(=O)NC(=O)NCc2ccccc2)cc1 [Example 1, 1-benzyl-3-[[5-isobutyl-3-[4-[(2-methylimidazol-1-yl)methyl]phenyl]-2-thienyl]sulfonyl]urea] | 8.40 | < 6.00 | 7.3 | 59.1 | 40 | 14.3 | 49.7 | 41.3 |
| Cc1nccn1Cc1ccc(-c2cc(CC(C)C)sc2S(=O)(=O)NC(=O)NCC2CCC(F)(F)CC2)cc1F.O=C(O)C(F)(F)F [Example 40, 1-[(4,4-difluorocyclohexyl)methyl]-3-[(3-{3-fluoro-4-[(2-methyl-1H-imidazol-1-yl)methyl]phenyl}-5-(2-methylpropyl)thiophen-2-yl)sulfonyl]urea trifluoroacetic acid] | 8.11 | 4.77 | -1 | 80 | 64 | 47 | 70 | 85 |
| Cc1nccn1Cc1ccc(-c2cc(CC(C)C)sc2S(=O)(=O)NC(=O)NCc2cc(Cl)ccn2)cc1F.O=C(O)C(F)(F)F [Example 38, 1-[(4-chloropyridin-2-yl)methyl]-3-[(3-{3-fluoro-4-[(2-methyl-1H-imidazol-1-yl)methyl]phenyl}-5-(2-methylpropyl)thiophen-2-yl)sulfonyl]urea trifluoroacetic acid] | 7.78 | 4.60 | 13 | 58 | 62 | 19 | 48 | 22 |
| CCCCNC(=O)NS(=O)(=O)c1sc(CC(C)C)cc1-c1ccc(Cn2ccnc2C)cc1 [Example 4, 1-Butyl-3-(5-isobutyl-3-{p-[(2-methyl-1H-imidazol-1-yl)methyl]phenyl}-2-thienylsulfonyl)-urea] | 7.98 | < 5.00 | 10.5 | 37.5 | 47.2 | 7.7 | 31.3 | 17.1 |
